Reference: patent US9562036B2, “Fluoromethyl-substituted pyrrole carboxamides as CaV2.2 calcium channel blockers” (GRÜNENTHAL GMBH, priority 2013, dated 2017)

Each compound was assayed against T1, Human CaV2.2 channels (Homo sapiens, UniProt Q00975) (assay: Fluorescent assay for CaV2.2 channels using potassium depolarization to induce channel opening (FLIPR, Fluo 4)). Conditions: 3 μM test compound; 30 mM KCl alternative assay buffer (inactivated channel state); HEK293 cells; read-out: %-Inhib (CaV2.2) @3 μM @30 mM KCl.
T1 construct: expressed in transfected cells; also stably expressing Kir2.3)
Assay type: cell-based
Description: In the process, the Ca^2+ influx is quantified in the FLIPR assay with the aid of a Ca^2+-sensitive dye (type Fluo-4, Molecular Probes Europe BV, Leiden, the Netherlands) in a fluorescent imaging plate reader (FLIPR 3, Molecular Devices, Sunnyvale, USA), as described hereinafter.
2. Assay Descriptions and Biological Data: 2.1 Fluorescent Assay for CaV2.2 Channels Using Potassium Depolarization to Induce Channel Opening
Human CaV2.2 channels were stably expressed in HEK293 cells together with alpha2-delta and beta subunits of voltage gated calcium channels. In addition, an inwardly rectifying potassium channel (Kir2.3) was stably expressed in these cells to augment control of the cell membrane potential by the concentration of extracellular potassium ions. Raise of the extracellular potassium concentration leads to depolarization of the membrane potential and thus regulates the voltage dependent state of CaV2.2 channels. For preparation, cells were seeded in black poly-D-lysine coated 96-well plates (Becton Dickinson, Biocoat 4640) in 100 μL medium [500 mL DMEM/F-12 plus Glutamax (Invitrogen 31331-093) plus 5.5 mL MEM NEAA 100× (Invitrogen 11140-035) plus 50 mL FBS decomplemented (Invitrogen 10270-106) plus 200 μg/mL Geneticin (Invitrogen 10131-027) plus 50 μg/mL Hygromycin B (Invitrogen 10687-010) plus 2 μg/mL Blasticidin (anti-bl5b Invivo-Gen) plus 0.2 μg/mL Puromycin (A 11138-03)] at a cell density of 30.000 cells per well. Plates were incubated at 37° C. (5% CO2) for 20 to 23 h. On the day of experiment medium was discarded and cells were loaded with Fluo 4 by addition of 100 μL of basic assay buffer (10 mM HEPES, 1 mM KCl, 149 mM NaCl, 0.8 mM CaC2, 1.7 mM MgCl2, 10 mM Glucose, 0.1% BSA. pH 7.4) containing 2 μM Fluo 4 (Molecular Probes; F-14201), 0.01% pluronic acid (Molecular Probes; P-6866) and 2.5 mM probenecid (Molecular Probes; P36400). Cells were incubated in the dark at 25° C. for 60 min. Then dye containing buffer was discarded and 100 μL basic (1 mM KCl) or alternative (30 mM KCl) assay buffer was added. The alternative assay buffer contained altered concentrations of KCl (30 mM) and NaCl (120 mM) and was used in order to promote the inactivated channel state. After that 25 μL of basic or alternative assay buffer with or without test compound were added and cells were incubated again in the dark at 25° C. for 15 min. Fluorescence intensity was measured on a FLIPR 3 instrument (Molecular Devices Corp., Sunnyvale, Calif.) with excitation at 480 nm and emission at 535 nm. After continuously reading fluorescence for 30 sec, 50 μL of basic assay buffer containing 210 mM KCl (NaCl omitted) were added for depolarization. Peak fluorescent signal intensity was determined and the amplitude of the peak signal, normalized to base line, was used to measure channel inhibition by test compounds.

T1 sequence (Q00975 whole entry): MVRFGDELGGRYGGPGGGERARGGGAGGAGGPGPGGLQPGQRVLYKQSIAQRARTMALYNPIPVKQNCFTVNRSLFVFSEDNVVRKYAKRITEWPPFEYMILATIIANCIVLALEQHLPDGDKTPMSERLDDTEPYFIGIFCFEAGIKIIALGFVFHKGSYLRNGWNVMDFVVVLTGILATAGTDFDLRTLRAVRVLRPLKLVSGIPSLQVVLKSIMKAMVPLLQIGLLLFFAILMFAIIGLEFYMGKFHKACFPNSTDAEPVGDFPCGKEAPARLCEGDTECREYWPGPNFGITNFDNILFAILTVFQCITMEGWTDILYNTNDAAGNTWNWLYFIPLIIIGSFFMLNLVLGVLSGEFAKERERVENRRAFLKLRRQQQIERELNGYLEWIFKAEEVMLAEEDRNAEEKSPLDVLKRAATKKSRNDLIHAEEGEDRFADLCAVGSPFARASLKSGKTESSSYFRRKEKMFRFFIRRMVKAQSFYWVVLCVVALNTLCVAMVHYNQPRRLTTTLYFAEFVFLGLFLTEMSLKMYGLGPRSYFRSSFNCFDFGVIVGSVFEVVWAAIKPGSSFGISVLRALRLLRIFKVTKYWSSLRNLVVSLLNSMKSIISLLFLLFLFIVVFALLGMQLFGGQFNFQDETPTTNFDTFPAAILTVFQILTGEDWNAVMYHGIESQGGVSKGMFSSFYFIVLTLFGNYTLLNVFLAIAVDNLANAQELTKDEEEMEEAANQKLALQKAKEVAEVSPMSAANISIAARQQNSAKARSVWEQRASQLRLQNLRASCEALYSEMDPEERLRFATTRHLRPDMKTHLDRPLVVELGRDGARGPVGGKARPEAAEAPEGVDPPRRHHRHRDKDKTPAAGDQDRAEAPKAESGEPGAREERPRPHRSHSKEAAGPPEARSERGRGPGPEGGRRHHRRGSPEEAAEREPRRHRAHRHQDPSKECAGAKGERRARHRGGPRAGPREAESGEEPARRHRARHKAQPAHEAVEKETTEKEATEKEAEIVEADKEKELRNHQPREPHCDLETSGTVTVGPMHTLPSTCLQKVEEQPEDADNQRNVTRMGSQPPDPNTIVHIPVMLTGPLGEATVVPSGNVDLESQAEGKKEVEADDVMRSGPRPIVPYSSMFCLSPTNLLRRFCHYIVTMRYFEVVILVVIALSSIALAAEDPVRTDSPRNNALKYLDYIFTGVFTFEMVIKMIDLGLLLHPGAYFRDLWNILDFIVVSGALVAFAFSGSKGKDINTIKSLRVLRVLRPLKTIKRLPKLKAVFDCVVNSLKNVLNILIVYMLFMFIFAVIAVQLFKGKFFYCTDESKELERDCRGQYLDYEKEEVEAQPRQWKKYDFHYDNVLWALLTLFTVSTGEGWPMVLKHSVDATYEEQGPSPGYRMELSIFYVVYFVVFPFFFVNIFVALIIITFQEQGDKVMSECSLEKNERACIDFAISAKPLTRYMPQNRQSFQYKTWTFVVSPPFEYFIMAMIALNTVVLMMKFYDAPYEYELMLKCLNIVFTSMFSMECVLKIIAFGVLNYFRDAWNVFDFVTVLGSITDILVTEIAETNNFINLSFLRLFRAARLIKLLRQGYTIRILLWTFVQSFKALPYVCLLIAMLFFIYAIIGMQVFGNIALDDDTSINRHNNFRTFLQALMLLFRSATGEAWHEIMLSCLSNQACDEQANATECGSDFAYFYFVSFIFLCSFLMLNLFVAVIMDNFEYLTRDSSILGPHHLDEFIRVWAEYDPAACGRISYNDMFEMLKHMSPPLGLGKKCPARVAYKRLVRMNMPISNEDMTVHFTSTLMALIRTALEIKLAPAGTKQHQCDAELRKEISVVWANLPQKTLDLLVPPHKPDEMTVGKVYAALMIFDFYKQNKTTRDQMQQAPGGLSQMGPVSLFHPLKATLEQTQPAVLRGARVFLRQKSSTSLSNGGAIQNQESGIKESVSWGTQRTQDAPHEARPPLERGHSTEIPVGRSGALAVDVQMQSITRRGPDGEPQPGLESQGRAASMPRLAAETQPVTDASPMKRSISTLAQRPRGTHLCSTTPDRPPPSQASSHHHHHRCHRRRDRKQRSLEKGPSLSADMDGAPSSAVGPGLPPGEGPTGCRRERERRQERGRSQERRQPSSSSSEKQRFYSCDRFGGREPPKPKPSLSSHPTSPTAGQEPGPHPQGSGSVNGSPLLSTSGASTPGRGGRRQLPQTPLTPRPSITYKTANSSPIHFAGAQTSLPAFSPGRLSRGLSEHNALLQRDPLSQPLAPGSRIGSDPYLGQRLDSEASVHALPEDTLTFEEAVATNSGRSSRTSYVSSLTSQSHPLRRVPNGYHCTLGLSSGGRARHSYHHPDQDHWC

First: COc1cnc(-c2c(C)c(C(F)(F)F)n(Cc3ccccc3)c2C(=O)N(C)CC(C)(C)C)cn1 [Example 01, 1-benzyl-3-(5-methoxypyrazin-2-yl)-N,4-dimethyl-N-neopentyl-5-(trifluoromethyl)-1H-pyrrole-2-carboxamide]
Second: COc1ccc(-c2c(C)c(C(F)(F)F)n(Cc3ccccc3)c2C(=O)N(C)CC(C)(C)C)cn1 [Example 02, 1-Benzyl-3-(6-methoxypyridin-3-yl)-N,4-dimethyl-N-neopentyl-5-(trifluoromethyl)-1H-pyrrole-2-carboxamide]
The inhibition at 3 µM of the first is higher: 75 to 95% for the first, 40 to 75% for the second.

Compared with `Cc1c(-c2ccc(O)nc2)c(C(=O)N(C)CC(C)(C)C)n(Cc2ccccc2)c1C(F)(F)F` [Example 03, 1-Benzyl-3-(6-hydroxypyridin-3-yl)-N,4-dimethyl-N-neopentyl-5-(trifluoromethyl)-1H-pyrrole-2-carboxamide], `COc1ncc(-c2c(C)c(C(F)(F)F)n(Cc3ccccc3)c2C(=O)N(C)CC(C)(C)C)cn1` [Example 12, 1-Benzyl-N-(2,2-dimethyl-propyl)-3-(2-methoxy-pyrimidin-5-yl)-N,4-dimethyl-5-(trifluoromethyl)-1H-pyrrole-2-carboxylic acid amide] is higher in inhibition at 3 µM: 40 to 75% for the first, 75 to 95% for the second.

Compared with `Cc1c(-c2cnn(C)c2)c(C(=O)N(C)CC(C)(C)C)n(Cc2ccccc2)c1C(F)(F)F` [Example 04, 1-Benzyl-N,4-dimethyl-3-(1-methyl-1H-pyrazol-4-yl)-N-neopentyl-5-(trifluoromethyl)-1H-pyrrole-2-carboxamide], `Cc1c(-c2cn[nH]c2)c(C(=O)N(C)CC(C)(C)C)n(Cc2ccccc2)c1C(F)(F)F` [Example 09, 1-Benzyl-N,4-dimethyl-N-neopentyl-3-(1H-pyrazol-4-yl)-5-(trifluoromethyl)-1H-pyrrole-2-carboxamide] is lower in inhibition at 3 µM: greater than 95% for the first, 75 to 95% for the second.

First: COc1cnc(-c2c(C)c(C(F)(F)F)n(Cc3ccccc3)c2C(=O)N2CCOCC2)cn1 [Example 05, (1-Benzyl-3-(5-methoxypyrazin-2-yl)-4-methyl-5-(trifluoromethyl)-1H-pyrrol-2-yl)(morpholino)methanone]
Second: COc1ccc(-c2c(C)c(C(F)(F)F)n(Cc3ccccc3)c2C(=O)N2CCOCC2)cn1 [Example 06, (1-Benzyl-3-(6-methoxypyridin-3-yl)-4-methyl-5-(trifluoromethyl)-1H-pyrrol-2-yl)(morpholino)methanone]
The inhibition at 3 µM of the first is lower: 40 to 75% for the first, 75 to 95% for the second.

`Cc1c(-c2cnn(C)c2)c(C(=O)N2CCOCC2)n(Cc2ccccc2)c1C(F)(F)F` [Example 08, (1-Benzyl-4-methyl-3-(1-methyl-1H-pyrazol-4-yl)-5-(trifluoromethyl)-1H-pyrrol-2-yl)(morpholino)methanone] and `Cc1c(-c2cn[nH]c2)c(C(=O)N2CCOCC2)n(Cc2ccccc2)c1C(F)(F)F` [Example 10, (1-Benzyl-4-methyl-3-(1H-pyrazol-4-yl)-5-(trifluoromethyl)-1H-pyrrol-2-yl)(morpholino)methanone] fall in the same range of inhibition at 3 µM: 40 to 75% for the first, 40 to 75% for the second.

First: Cc1c(-c2cncnc2)c(C(=O)N(C)CC(C)(C)C)n(Cc2ccccc2)c1C(F)(F)F [Example 11, 1-Benzyl-N-(2,2-dimethyl-propyl)-N,4-dimethyl-3-pyrimidin-5-yl-5-(trifluoromethyl)-1H-pyrrole-2-carboxylic acid amide]
Second: Cc1c(-c2ncc(Cl)cn2)c(C(=O)N(C)CC(C)(C)C)n(Cc2ccccc2)c1C(F)(F)F [Example 18, 1-Benzyl-3-(5-chloro-pyrimidin-2-yl)-N-(2,2-dimethyl-propyl)-N,4-dimethyl-5-(trifluoromethyl)-1H-pyrrole-2-carboxylic acid amide]
The inhibition at 3 µM of the first is lower: 75 to 95% for the first, greater than 95% for the second.

First: Cc1c(-c2ccc(Cl)s2)c(C(=O)N(C)CC(C)(C)C)n(Cc2ccccc2)c1C(F)(F)F [Example 13, 1-Benzyl-3-(5-chloro-thiophen-2-yl)-N-(2,2-dimethyl-propyl)-N,4-dimethyl-5-(trifluoromethyl)-1H-pyrrole-2-carboxylic acid amide]
Second: Cc1c(-c2ccc(Cl)nn2)c(C(=O)N(C)CC(C)(C)C)n(Cc2ccccc2)c1C(F)(F)F [Example 22, 1-Benzyl-3-(6-chloro-pyridazin-3-yl)-N-(2,2-dimethyl-propyl)-N,4-dimethyl-5-(trifluoromethyl)-1H-pyrrole-2-carboxylic acid amide]
The inhibition at 3 µM of the first is lower: 75 to 95% for the first, greater than 95% for the second.

`COc1ncc(-c2c(C)c(C(F)(F)F)n(Cc3ccccc3)c2C(=O)N2CCOCC2)cn1` [Example 14, [1-Benzyl-3-(2-methoxy-pyrimidin-5-yl)-4-methyl-5-(trifluoromethyl)-1H-pyrrol-2-yl]-morpholin-4-yl-methanone] and `Cc1c(-c2cncnc2)c(C(=O)N2CCOCC2)n(Cc2ccccc2)c1C(F)(F)F` [Example 15, [1-Benzyl-4-methyl-3-pyrimidin-5-yl-5-(trifluoromethyl)-1H-pyrrol-2-yl]-morpholin-4-yl-methanone] fall in the same range of inhibition at 3 µM: 40 to 75% for the first, 40 to 75% for the second.

`Cc1noc(C)c1-c1c(C)c(C(F)(F)F)n(Cc2ccccc2)c1C(=O)N(C)CC(C)(C)C` [Example 16, 1-Benzyl-3-(3,5-dimethyl-isoxazol-4-yl)-N-(2,2-dimethyl-propyl)-N,4-dimethyl-5-(trifluoromethyl)-1H-pyrrole-2-carboxylic acid amide] and `Cc1cc(Cl)ncc1-c1c(C)c(C(F)(F)F)n(Cc2ccccc2)c1C(=O)N(C)CC(C)(C)C` [Example 20, 1-Benzyl-3-(6-chloro-4-methyl-pyridin-3-yl)-N-(2,2-dimethyl-propyl)-N,4-dimethyl-5-(trifluoromethyl)-1H-pyrrole-2-carboxylic acid amide] fall in the same range of inhibition at 3 µM: 75 to 95% for the first, 75 to 95% for the second.

`Cc1c(-c2ncc(C(F)(F)F)cc2F)c(C(=O)N(C)CC(C)(C)C)n(Cc2ccccc2)c1C(F)(F)F` [Example 17, 1-Benzyl-N-(2,2-dimethyl-propyl)-3-[3-fluoro-5-(trifluoromethyl)-pyridin-2-yl]-N,4-dimethyl-5-(trifluoromethyl)-1H-pyrrole-2-carboxylic acid amide] and `COc1cc(C)c(-c2c(C)c(C(F)(F)F)n(Cc3ccccc3)c2C(=O)N(C)CC(C)(C)C)cn1` [Example 21, 1-Benzyl-N-(2,2-dimethyl-propyl)-3-(6-methoxy-4-methyl-pyridin-3-yl)-N,4-dimethyl-5-(trifluoromethyl)-1H-pyrrole-2-carboxylic acid amide] fall in the same range of inhibition at 3 µM: 75 to 95% for the first, 75 to 95% for the second.

`Cc1cc(C#N)ncc1-c1c(C)c(C(F)(F)F)n(Cc2ccccc2)c1C(=O)N(C)CC(C)(C)C` [Example 19, 1-Benzyl-3-(6-cyano-4-methylpyridin-3-yl)-N,4-dimethyl-N-neopentyl-5-(trifluoromethyl)-1H-pyrrole-2-carboxamide] and `Cc1cc(C#N)ncc1-c1c(C)c(C(F)(F)F)n(Cc2ccccc2)c1C(=O)N1CCOCC1` [Example 26, 5-[1-Benzyl-4-methyl-2-(morpholine-4-carbonyl)-5-(trifluoromethyl)-1H-pyrrol-3-yl]-4-methyl-pyridine-2-carbonitrile] fall in the same range of inhibition at 3 µM: 75 to 95% for the first, 75 to 95% for the second.

Compared with `Cc1noc(C)c1-c1c(C)c(C(F)(F)F)n(Cc2ccccc2)c1C(=O)N1CCOCC1` [Example 23, [1-Benzyl-3-(3,5-dimethyl-isoxazol-4-yl)-4-methyl-5-(trifluoromethyl)-1H-pyrrol-2-yl]-morpholin-4-yl-methanone], `Cc1c(-c2ncc(Cl)cn2)c(C(=O)N2CCOCC2)n(Cc2ccccc2)c1C(F)(F)F` [Example 25, [1-Benzyl-3-(5-chloro-pyrimidin-2-yl)-4-methyl-5-(trifluoromethyl)-1H-pyrrol-2-yl]-morpholin-4-yl-methanone] is higher in inhibition at 3 µM: 75 to 95% for the first, greater than 95% for the second.

Work on `Cc1c(-c2ncc(C(F)(F)F)cc2F)c(C(=O)N2CCOCC2)n(Cc2ccccc2)c1C(F)(F)F` [Example 24, [1-Benzyl-3-[3-fluoro-5-(trifluoromethyl)-pyridin-2-yl]-4-methyl-5-(trifluoromethyl)-1H-pyrrol-2-yl]-morpholin-4-yl-methanone] yielded an inhibition at 3 µM greater than 95%.
